From patent US10052359B2, “Composition for enhancing memory and learning function and/or cognitive function” (KIRIN KABUSHIKI KAISHA, priority 2014, dated 2018)
“Also recorded” adds a separate entry of the source.

Experiments:
[1] = system: scopolamine model of poor memory; assay: Y-maze test (spontaneous alternation behavior) in mice given scopolamine; assay type: in vivo; settings: for enhancing effect on the memory and learning function and the cognitive function (spontaneous alternation behavior rate): synthetic peptide 0.1-3 μmol/kg orally, scopolamine 0.80 mg/kg i.p.
Description: FIG. 1A illustrates a summary of methods of evaluating the memory and learning function and the cognitive function. To 6-week-old male CD-1 mice, 1 mg/kg of the peptide extract or 0.1-3 μmol/kg of a synthetic peptide is orally administered forcibly into stomach and 40 minutes later 0.80 mg/kg of scopolamine hydrochloride was administered intraperitoneally to cause memory impairment. 20 minutes after the intraperitoneal administration of scopolamine, the Y-maze test was conducted to evaluate the spontaneous alternation behavior.
Mice originally have a habit of selecting a route different from the route selected immediately before. Therefore a mouse placed in a Y-maze having 3 arms equivalent in width, length, and the like normally enters the arm different from the arm that the mouse entered immediately before. The Y-maze test is a test to evaluate the short-term memory using the habit of mice.
In the Y-maze test, a Y-maze was used as an experimental apparatus having 3 arms each connected at an angle of 120 degrees and each having a length of 25 cm, a wall high of 20 cm, and a floor width of 5 cm.
Mice were placed in the tip of one of the aims in the Y-maze and the orders of the arms that the mice entered when the mice were allowed to search freely for 8 minutes were recorded. The spontaneous alternation behavior is defined as the behavior in which a mouse selects and enters the different arm three times consecutively. […] 10 mice per group were used for the experiment and the average and the standard error were determined. [Examination of Enzymatic Agent]

TNF-α = assay: Anti-inflammatory activity of isolated microglia (TNF-α in supernatant by ELISA after LPS and IFNγ); assay type: cell-based, mouse; settings: 12 h pretreatment with 0, 25, 50 or 100 μM synthetic peptide; then LPS 5 ng/ml and IFNγ 0.5 ng/ml for 12 h; FIG. 11
Description: Brain tissue homogenate is obtained by treating the brain extirpated from a mouse with papain. After stopping the enzymatic reaction, microglia were allowed to interact with a pan-microglia marker, CD11b antibody (produced from Miltenyi Biotec) magnetically-labeled with microbeads and isolated by the MACS method.
Isolated microglia are cultured for 12 hours in a medium supplemented with various peptides. 5 ng/ml lipopolysaccharide (LPS, SIGMA-ALDRICH) and 0.5 ng/ml interferon γ(IFNγ, R & D systems) were then added and culture was continued for 12 hours. TNF-α contained in the culture supernatant was quantified with an ELISA kit (eBiosceince).
Peptides were synthesized based on the obtained amino acid sequences and the anti-inflammatory effect was evaluated. The isolated microglia are pretreated in a medium supplemented with 0, 25, 50, or 100 μM of a synthetic peptide ([…] (SEQ ID NO: 1), […] (SEQ ID NO: 17), AVPYP (SEQ ID NO: 6), SLPQ (SEQ ID NO: 9), YPE (SEQ ID NO: 12), WM (SEQ ID NO: 14), or WY (SEQ In NO: 13)) for 12 hours. As described above, LPS and IFN-γ were added to the medium and culture was continued for 12 hours. INF-α contained in the culture supernatant was measured by ELISA. The result is illustrated in FIG. 11. In FIG. 11, “CM1” indicates the result of […] (SEQ ID NO: 1), “CM2” indicates the result of […] […]

Compound	enhancing effect on the memory and learning function and the cognitive function (spontaneous alternation behavior rate) [1]	enhancing effect on the memory and learning function ([1]; 1 μmol/kg to mice, FIG. 9A, 9B)	production of TNF-α (anti-inflammatory effect) (TNF-α)
N[C@@H](Cc1c[nH]c2ccccc12)C(=O)O [W, tryptophan, reference compound]	had no effects		
AVPYP (listed as Bos taurus) [casein-derived peptide, tested as synthetic peptide]	enhancement activity on the memory and learning function and the cognitive function		
GTWY (listed as Bos taurus) [whey-derived peptide, tested as synthetic peptide]	exhibited the activity of enhancing the memory and learning function and the cognitive function in a concentration-dependent manner		
GYGGVSLP (listed as Bos taurus) [whey-derived peptide, tested as synthetic peptide]	exhibited the activity of enhancing the memory and learning function and the cognitive function in a concentration-dependent manner		
KEMPFPKYPVEP (listed as Bos taurus) [casein-derived peptide of 12 amino acids, tested as synthetic peptide]	enhancement activity on the memory and learning function and the cognitive function		
KPTPEGDLEI (listed as Bos taurus) [whey-derived peptide, tested as synthetic peptide]	exhibited the activity of enhancing the memory and learning function and the cognitive function in a concentration-dependent manner		
PVEP (listed as Bos taurus)		had the enhancing effect on the memory and learning function at the similar level to that of the original amino acid sequence KEMPFPKYPVEP	
SLPQ (listed as Bos taurus) [casein-derived peptide, tested as synthetic peptide]	enhancement activity on the memory and learning function and the cognitive function		
TWY (listed as Bos taurus) [whey-derived peptide, tested as synthetic peptide]	exhibited the activity of enhancing the memory and learning function and the cognitive function in a concentration-dependent manner		
TWYS (listed as Bos taurus) [whey-derived peptide, tested as synthetic peptide]	exhibited the activity of enhancing the memory and learning function and the cognitive function in a concentration-dependent manner		
VAGTWYS (listed as Bos taurus) [whey-derived peptide, tested as synthetic peptide]	exhibited the activity of enhancing the memory and learning function and the cognitive function in a concentration-dependent manner		
VSLPEW (listed as Bos taurus) [whey-derived peptide, tested as synthetic peptide]	exhibited the activity of enhancing the memory and learning function and the cognitive function in a concentration-dependent manner		
YPE (listed as Bos taurus) [casein-derived peptide, tested as synthetic peptide]	enhancement activity on the memory and learning function and the cognitive function		
methionine-tryptophan [MW, reference compound]	had no enhancing effect on the memory and learning function and the cognitive function		
tryptophan-methionine [WM]	found to have an enhancing effect on the memory and learning function and the cognition function in a concentration-dependent manner; also recorded: enhancement activity on the memory and learning function and the cognitive function		
tryptophan-tyrosine [WY]	found to have an enhancing effect on the memory and learning function and the cognition function in a concentration-dependent manner; also recorded: enhancement activity on the memory and learning function and the cognitive function		particularly high anti-inflammatory effect
tyrosine-tryptophan [YW, reference compound]	had no enhancing effect on the memory and learning function and the cognitive function		
